Source: US10766885B1, “Silibinin 3,3′-thiodipropionic acid ester with hepatoprotective activity and a method of preparing the same” (SHAANXI UNIVERSITY OF SCIENCE AND TECHNOLOGY, priority 2020, dated 2020)

Legend:
[1] = system: Mice with Alcoholic Liver Injury; experiment: Protective effect on alcoholic liver injury in mice (serum ALT, AST, TG); type: in vivo; details: ethanol 3 g/kg/day, after 25 days
Procedure: The compound of formula (I) was prepared by the method of Example 7. In order to study its protective effect on alcoholic liver injury in mice, the following animal model was designed.
Three-week-old 30-35 g SPF male mice were randomly divided into normal control group, model group, low-dose group, high-dose group and tiopronin positive control group after adaptive feeding for 3 days. The normal control group and model group were fed with basic feed every day; low dose group and high dose group were fed with basic diet every day and were given the compound of formula (I) of 10 mg/kg/day and 50 mg/kg/day, respectively; tiopronin positive control group was fed with basic feed and 50 mg/kg/day tiopronin. Ethanol 3 g/kg/day (0.01 mL/g) was given to the model group, low dose group, high dose group and tiopronin positive control group. The normal control group was given distilled water of the same volume. After 25 days, fasting for 2 hours after the last administration, glutamic pyruvic transaminase (ALT), glutamic oxaloacetic transaminase (AST) and triglyceride (TG) were measured in serum by decapitation.

[2] = DPPH radical scavenging activity assay; type: biochemical; details: for DPPH Clearance rate: n = 3
Text: 2,2-Diphenyl-1-picryl hydrazyl (DPPH) is an organic compound composed of a stable organic radical. In the DPPH molecule, due to the presence of multiple electron-withdrawing —NO2 and large π bonds of the benzene ring, nitrogen free radical is stabilized. Its methanol solution is purple and has a maximum absorption peak at 517 nm. After the addition of an antioxidant, DPPH captures an electron to be paired with the free electron, and the purple fades and turns into a yellow substance. The absorption at 517 nm disappears, and the degree of fading is quantitatively related to the number of electrons it captures. Based on this principle, a spectrophotometer is used to detect the change of the absorbance of the DPPH radical and the sample solution, and the ability of the sample to provide hydrogen atoms and scavenge free radicals can be measured.
Preparation of DPPH solution: measuring exact amount of 2,2-diphenyl-1-picryl hydrazyl (DPPH) and dissolving in toluene to prepare a 0.2 mmol/L DPPH solution, stored at 0° C. in dark.
Preparation of test solution: Vc (vitamin C, positive control), compound of formula (I) (sample), silibinin (control) and 3,3′-thiodipropionic acid (control). The sample solution was subjected to gradient dilution with toluene, and three sets of controls were separately dissolved in a test tube with a certain amount of toluene to prepare the same concentration gradient as the sample.
Sample liquid absorbance measurement: Take 2 mL of sample solution (Table 2 Vc, B, C), add 2 mL of DPPH solution with concentration of 2×10^−4 mol/L, mix and react in the dark at room temperature for 30 min, adjust to zero with toluene, and measure at 517 nm. The absorbance Ai was simultaneously measured for the absorbance Aj of 2 mL of toluene mixed with 2 mL of the sample solution and the absorbance Ao of 2 mL of DPPH solution mixed with 2 mL of toluene (the experimental results are shown in Table 3).
Clearance calculation: clearance rate (%)=[1−(Ai−Aj)/Ao]*100%

Row | Structure (SMILES) | ALT ([1]; 10 mg/kg/day) [U/L] | AST ([1]; 10 mg/kg/day) [U/L] | TG ([1]; 10 mg/kg/day) [mmol/L] | ALT ([1]; 50 mg/kg/day) [U/L] | AST ([1]; 50 mg/kg/day) [U/L] | TG ([1]; 50 mg/kg/day) [mmol/L] | scavenging ability compared with the positive control Vc group [2] | DPPH Clearance rate ([2]; 1.76 ppm) [%] | DPPH Clearance rate ([2]; 8.80 ppm) [%] | DPPH Clearance rate ([2]; 21.12 ppm) [%] | DPPH Clearance rate ([2]; 42.24 ppm) [%] | DPPH Clearance rate ([2]; 79.20 ppm) [%] | DPPH Clearance rate ([2]; 112.64 ppm) [%] | DPPH Clearance rate ([2]; 281.60 ppm) [%] | DPPH Clearance rate ([2]; 492.80 ppm) [%] | DPPH Clearance rate ([2]; 792.00 ppm) [%] | DPPH Clearance rate ([2]; 915.20 ppm) [%] | scavenging ability to scavenge DPPH free radicals compared with silibinin (B) and 3,3′-thiodipropionic acid (C) alone ([2]; at the same concentration) | highest scavenging rate of DPPH radical ([2]; in the determined concentration range) [%]
1 | COc1cc(C2Oc3cc([C@H]4Oc5cc(O)cc(O)c5C(=O)[C@@H]4O)ccc3OC2COC(=O)CCSCCC(=O)OCC2Oc3ccc([C@H]4Oc5cc(O)cc(O)c5C(=O)[C@@H]4O)cc3OC2c2ccc(O)c(OC)c2)ccc1O (stereo partly drawn) [Compound of Formula (I), bis((3-(4-hydroxy-3-methoxyphenyl)-6-((2R,3R)-3,5,7-trihydroxy-4-oxochroman-2-yl)-2,3-dihydrobenzo[b][1,4]dioxin-2-yl)methyl) 3,3′-thiodipropionate] | 60.88 ± 9.75 | 138.53 ± 17.85 | 0.973 ± 0.25 | 56.17 ± 3.45 | 132.56 ± 7.21 | 0.877 ± 0.36 | slightly weaker | 13.11 | 20.80 | 34.16 | 44.12 | 68.42 | 75.23 | 81.21 | 84.70 | 87.06 | 89.96 | better | 89.96
2 | O=C1O[C@H]([C@@H](O)CO)C(O)=C1O [Vc, vitamin C] | – | – | – | – | – | – | – | 23.16 | 33.47 | 79.63 | 89.55 | 97.42 | 97.53 | 98.29 | 99.06 | 99.10 | 99.28 | – | –
3 | CC(S)C(=O)NCC(=O)O (stereo not shown) [Tiopronin, tiopronin] | – | – | – | 63.45 ± 9.53 | 143.32 ± 15.46 | 1.336 ± 0.62 | – | – | – | – | – | – | – | – | – | – | – | – | –
4 | COc1cc(C2Oc3cc([C@H]4Oc5cc(O)cc(O)c5C(=O)[C@@H]4O)ccc3OC2CO)ccc1O (stereo partly shown) [B, Silibinin] | – | – | – | – | – | – | – | 8.42 | 9.16 | 22.43 | 27.10 | 39.53 | 45.87 | 60.25 | 65.88 | 69.85 | 72.76 | – | –
5 | O=C(O)CCSCCC(=O)O [C, 3,3′-Thiodipropionic acid] | – | – | – | – | – | – | – | 6.85 | 8.38 | 17.13 | 22.38 | 39.55 | 43.58 | 52.23 | 59.36 | 64.55 | 68.22 | – | –
